Experimental data published in patent US8877683B2, “Substituted pyridines having herbicidal activity” (BASF SE, priority 2010, dated 2014).

Assays:
Assay in all cases: greenhouse post-emergence herbicidal test
Format in all cases: in vivo
Conditions in all cases: application rate 0.25 kg/ha
[1] = system: BRSNW (Brassica napus (winter))
Text: (§1) The culture containers used were plastic flowerpots containing loamy sand with approximately 3.0% of humus as the substrate. The seeds of the test plants were sown separately for each species.
(§2) For the post-emergence treatment, the test plants were first grown to a height of 3 to 15 cm, depending on the plant habit, and only then treated with the active ingredients which had been suspended or emulsified in water. For this purpose, the test plants were either sown directly and grown in the same containers, or they were first grown separately as seedlings and transplanted into the test containers a few days prior to treatment.
(§3) Depending on the species, the plants were kept at 10-25° C. or 20-35° C. The test period extended over 2 to 4 weeks. During this time, the plants were tended, and their response to the individual treatments was evaluated.
(§4) Evaluation was carried out using a scale from 0 to 100. 100 means no emergence of the plants, or complete destruction of at least the aerial moieties, and 0 means no damage, or normal course of growth. A good herbicidal activity is given at values of at least 70 and a very good herbicidal activity is given at values of at least 85.
(§5) The herbicidal activity of the substituted pyridine compounds I-2 and I-13 according to this invention was tested in comparison with the corresponding pyrazine compounds Nos. C-11 and C-19 disclosed on page 48 of WO 2010/130970 (not of the invention). These comparative experiments were performed at an application rate of 0.25 kg/ha in a post-emergence treatment by following the same procedure as described above in the Use Examples. The results of Comparative Examples 1 and 2 are indicated below in Tables II and III.

[2] = system: CHEAL (Chenopodium album)
Text: as §1, §2, §3, §4, §5

[3] = system: ECHCG (Echinocloa crus-galli)
Text: as §1, §2, §3, §4, §5

[4] = system: ALOMY (Alopercurus myosuroides)
Text: as §1, §2, §3, §4, §5

AVEFA (Avena fatua) = system: AVEFA (Avena fatua)
Text: as §1, §2, §3, §4, §5

## O=S1(=O)Cc2cccnc2C(O)=C1c1c(Cl)cccc1Cl [I-13]
[1]
  herbicidal activity against BRSNW: very good (a very good herbicidal activity is given at values of at least 85)
[2]
  herbicidal activity against CHEAL: very good (a very good herbicidal activity is given at values of at least 85)
[3]
  herbicidal activity against ECHGG: very good (a very good herbicidal activity is given at values of at least 85)

## O=S1(=O)Cc2nccnc2C(O)=C1c1c(Cl)cccc1Cl [reference compound]
[1]
  herbicidal activity against BRSNW: good (A good herbicidal activity is given at values of at least 70)
[2]
  herbicidal activity against CHEAL: less than good
[3]
  herbicidal activity against ECHGG: less than good

## O=S1(=O)Cc2cccnc2C(O)=C1c1ccccc1C(F)(F)F [I-2, 6,6-Dioxo-7-(2-trifluoromethyl-phenyl)-5,6-dihydro-thiopyrano[4,3-b]pyridin-8-ol]
[4]
  herbicidal activity against ALOMY: very good (a very good herbicidal activity is given at values of at least 85)
AVEFA (Avena fatua)
  herbicidal activity against AVEFA: very good (a very good herbicidal activity is given at values of at least 85)
[3]
  herbicidal activity against ECHGG: very good (a very good herbicidal activity is given at values of at least 85)

## O=S1(=O)Cc2nccnc2C(O)=C1c1ccccc1C(F)(F)F [reference compound]
[4]
  herbicidal activity against ALOMY: good (A good herbicidal activity is given at values of at least 70)
AVEFA (Avena fatua)
  herbicidal activity against AVEFA: less than good
[3]
  herbicidal activity against ECHGG: less than good

## CC(C)(C)C(=O)OC1=C(c2ccccc2C(F)(F)F)S(=O)(=O)Cc2cccnc21 [I-8, 2,2-Dimethyl-propionic acid 6,6-dioxo-7-(2-trifluoromethyl-phenyl)-5,6-dihydro-thiopyrano[4,3-b]pyridin-8-yl ester]
[4]
  herbicidal activity against ALOMY: good (A good herbicidal activity is given at values of at least 70)
